pIC50: −log10 of the molar value. Several values for one entry are separate records, joined by “and”; a condition that tells them apart may be missing. Equal values may be shown once.
Key:
[1] = tested on: formalin-induced pain behaviors in the rat; test: Formalin-induced pain test (formalin model), duration of pain behaviors; format: in vivo
Procedure: Exemplary compounds of the invention were tested in the formalin-induced pain test reported by Dubuisson et al., Pain 1977 December; 4(2):161-74 (incorporated herein by reference in its entirety). Briefly, dilute formalin (50 μL of 3% formalin) was injected into the plantar surface of the hind paw of a rat. […] The individual responsible for counting the pain behaviors in a particular study was blinded to the treatment groups.
The initial phase (Phase I: 0-5 min) is thought to have a significant component that is dependent upon direct activation of afferent fibers by formalin and functional TRPA1 (McNamara et al., 2007).
Investigators studied oral administration of compounds of the invention at the doses presented in Table 3 on pain behaviors in the formalin model in the rat. Compounds were formulated as solutions in water with various solvents and excipients including dimethyl sulfoxide (DMSO), polyethylene glycol (15)-hydroxystearate (Solutol®, Sigma-Aldrich), caprylocaproyl macrogol-8 glyceride (Labrasol®, Sigma-Aldrich), polysorbate-80 (Tween®-80, Sigma-Aldrich), and polyoxyl 35 castor oil (Cremophor® EL, BASF Corp.); or suspensions in methylcellulose as indicated in Table 3. Animals were dosed orally with the vehicle, or compounds of the invention one hour prior to intraplantar formalin. […] A decrease over Vehicle indicates a positive result. P values, when indicated, indicate significance compared Vehicle.

[2] = tested on: CFA-induced cold hypersensitivity of the hind paw; test: CFA-induced pain test, cold hypersensitivity (cold plate paw withdrawal latency); format: in vivo; conditions: cold plate 1° C.; for Average PWL Post-Treatment / PWL Change: 1-2 hour pre-treatment; for Average PWL Post-CFA: baseline before dosing
Procedure: Embodiments of the invention may be efficacious in the treatment of inflammatory pain. Compounds of the invention were tested by the CFA-induced pain test method. Compounds were formulated as solutions in water with various solvents and excipients including dimethyl sulfoxide (DMSO), polyethylene glycol (15)-hydroxystearate (Solutol®, Sigma-Aldrich), caprylocaproyl macrogol-8 glyceride (Labrasol®, Sigma-Aldrich), polysorbate-80 (Tween®-80, Sigma-Aldrich), and polyoxyl 35 castor oil (Cremophor® EL, BASF Corp.); or suspensions in methylcellulose as indicated in Table 3 for oral delivery. Briefly, the hind paw was sensitized to cold temperature (allodynic) by administering 0.1 mL of Complete Freund's Adjuvant (CFA) to the right hind paw. Three days later, the time taken for the animal to lift its CFA-injected paw was recorded compared to its un-injected normal left hind paw. […] To avoid tissue damage the maximum cut-off time was 5 minutes. Animals that were allodynic (average PWL to the first three pain behaviors <150 seconds for the CFA-injected hind paw: ˜≥50% difference between the normal and CFA-injected paw) were included in the study and subsequently randomized across treatment groups. The following day, the animals were dosed orally under blinded conditions. Following the 1-2 hour pre-treatment time, the post-dose PWL readings were again taken. The efficacy of the drug treatment was assessed by comparing the PWL in the drug treatment animals to those animals that receive the vehicle. P values, when indicated, indicate significance compared Vehicle.

[3] = target: human TRPA1 (Homo sapiens (Human), UniProt O75762); test: In vitro inhibition of human TRPA1, whole cell patch configuration; format: cell-based; conditions: current activation 10 μM AITC, tested concentrations 320 pM to 3.2 μM, read-out: hTRPA1 IC50
Outline: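 Whole-cell patch clamp, bath 150 mM NaCl, 10 mM HEPES, 1 mM EGTA, 3 mM MgCl2, pH 7.4 (sometimes 2 mM CaCl2, 1 mM MgCl2). Currents recorded continuously at −60 mV or by 400 ms ramps from −40 mV holding every 4 s; inward/outward currents taken at −80/80 mV, with controlled-temperature focal perfusion.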

[4] = 30 mg/kg PO one hour prior to formalin, solution in 8% DMSO and 92% Labrasol
[5] = 1 mg/kg PO, solution in 4% DMSO, 5% Tween-80, 25% Cremophor EL, and 66% water
[6] = 3 mg/kg PO, solution in 4% DMSO, 5% Tween-80, 25% Cremophor EL, and 66% water
[7] = 10 mg/kg PO, solution in 4% DMSO, 5% Tween-80, 25% Cremophor EL, and 66% water
[8] = 1 mg/kg PO one hour prior to formalin, solution in 4% DMSO, 5% Tween-80, 20% Cremophor EL, 71% water
[9] = 3 mg/kg PO one hour prior to formalin, solution in 4% DMSO, 5% Tween-80, 20% Cremophor EL, 71% water
[10] = 10 mg/kg PO one hour prior to formalin, solution in 4% DMSO, 5% Tween-80, 20% Cremophor EL, 71% water
[11] = 1 mg/kg PO, solution in 4% DMSO, 5% Tween-80, 20% Cremophor EL, and 71% water
[12] = 3 mg/kg PO, solution in 4% DMSO, 5% Tween-80, 20% Cremophor EL, and 71% water
[13] = 10 mg/kg PO, solution in 4% DMSO, 5% Tween-80, 20% Cremophor EL, and 71% water
[14] = group 1 mg/kg PO, solution in 4% DMSO, 5% Tween-80, 20% Cremophor EL, and 71% water
[15] = group 3 mg/kg PO, solution in 4% DMSO, 5% Tween-80, 20% Cremophor EL, and 71% water
[16] = 1 mg/kg PO one hour prior to formalin, suspension in 0.5% methylcellulose
[17] = 3 mg/kg PO one hour prior to formalin, suspension in 0.5% methylcellulose
[18] = 10 mg/kg PO one hour prior to formalin, suspension in 0.5% methylcellulose
[19] = 30 mg/kg PO one hour prior to formalin, suspension in 0.5% methylcellulose
[20] = 0.3 mg/kg PO, solution in 4% DMSO, 5% Tween-80, 20% Cremophor EL, and 71% water
[21] = 0.3 mg/kg PO, suspension in 0.5% methylcellulose
[22] = 1 mg/kg PO, suspension in 0.5% methylcellulose
[23] = 3 mg/kg PO, suspension in 0.5% methylcellulose
[24] = group 0.3 mg/kg PO, solution in 4% DMSO, 5% Tween-80, 20% Cremophor EL, and 71% water

Chain of human TRPA1 (O75762 whole entry, the tested form may be a part): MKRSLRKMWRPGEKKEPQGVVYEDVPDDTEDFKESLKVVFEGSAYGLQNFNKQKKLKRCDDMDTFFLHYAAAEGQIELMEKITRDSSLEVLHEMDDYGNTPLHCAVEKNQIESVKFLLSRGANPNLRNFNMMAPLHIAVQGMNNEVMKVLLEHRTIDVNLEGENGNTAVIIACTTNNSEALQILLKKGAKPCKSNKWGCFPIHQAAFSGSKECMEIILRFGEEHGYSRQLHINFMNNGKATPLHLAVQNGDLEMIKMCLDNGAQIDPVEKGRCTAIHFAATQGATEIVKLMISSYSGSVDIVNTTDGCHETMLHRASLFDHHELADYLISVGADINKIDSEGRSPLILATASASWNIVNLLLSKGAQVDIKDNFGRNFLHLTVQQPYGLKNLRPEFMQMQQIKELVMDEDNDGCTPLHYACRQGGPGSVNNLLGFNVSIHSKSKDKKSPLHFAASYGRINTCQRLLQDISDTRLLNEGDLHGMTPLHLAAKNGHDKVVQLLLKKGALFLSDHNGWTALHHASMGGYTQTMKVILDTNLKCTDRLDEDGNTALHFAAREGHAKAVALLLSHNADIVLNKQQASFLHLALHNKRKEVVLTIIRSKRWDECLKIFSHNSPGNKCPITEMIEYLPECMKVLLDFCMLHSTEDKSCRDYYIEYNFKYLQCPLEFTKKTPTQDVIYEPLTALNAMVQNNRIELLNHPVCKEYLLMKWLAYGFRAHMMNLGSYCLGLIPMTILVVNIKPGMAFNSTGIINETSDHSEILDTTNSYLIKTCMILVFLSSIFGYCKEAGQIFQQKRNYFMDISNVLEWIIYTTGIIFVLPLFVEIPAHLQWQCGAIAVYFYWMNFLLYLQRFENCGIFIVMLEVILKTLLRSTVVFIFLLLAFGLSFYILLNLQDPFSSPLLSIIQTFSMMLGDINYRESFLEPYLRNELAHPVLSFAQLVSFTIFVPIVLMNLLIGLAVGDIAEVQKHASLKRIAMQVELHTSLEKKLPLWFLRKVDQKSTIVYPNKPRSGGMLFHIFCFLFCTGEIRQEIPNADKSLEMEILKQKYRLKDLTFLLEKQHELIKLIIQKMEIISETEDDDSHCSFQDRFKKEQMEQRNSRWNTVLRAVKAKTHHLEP

## CCC(=O)Cn1c(=O)c2c(ncn2[C@@H](C)C(=O)Nc2csc(-c3cnc(N4CC5CC5C4)nc3)n2)n(C)c1=O (stereo partly drawn) [Compound 14]
[1]; [4]
  Duration (0-2 Minutes) Average: 34.3 s and 39.6 s
  Duration (0-5 Minutes) Average: 123.4 s and 160.6 s
[2]; [5]
  Average PWL Post-Treatment: 194.8
  PWL Change: 104.2 s
[2]; [6]
  Average PWL Post-Treatment: 180.0
  PWL Change: 87.6 s
[2]; [7]
  Average PWL Post-Treatment: 237.4
  PWL Change: 146.3 s
[2]; group 1 mg/kg PO, solution in 4% DMSO, 5% Tween-80, 25% Cremophor EL, and 66% water
  Average PWL Post-CFA: 90.3
[2]; group 3 mg/kg PO, solution in 4% DMSO, 5% Tween-80, 25% Cremophor EL, and 66% water
  Average PWL Post-CFA: 92.3
[2]; group 10 mg/kg PO, solution in 4% DMSO, 5% Tween-80, 25% Cremophor EL, and 66% water
  Average PWL Post-CFA: 90.9

## CCC(=O)Cn1c(=O)c2c(ncn2[C@@H](C)C(=O)Nc2csc(-c3cnc(N4CCC[C@H]4C(F)(F)F)nc3)n2)n(C)c1=O [Compound 18, (S)-2-(3-methyl-2,6-dioxo-1-(2-oxobutyl)-2,3-dihydro-1H-purin-7(6H)-yl)-N-(2-(2-((S)-2-(trifluoromethyl)pyrrolidin-1-yl)pyrimidin-5-yl)thiazol-4-yl)propanamide]
[1]; [8]
  Duration (0-2 Minutes) Average: 78.0 s
  Duration (0-5 Minutes) Average: 183.3 s
[1]; [9]
  Duration (0-2 Minutes) Average: 58.0 s
  Duration (0-5 Minutes) Average: 157.1 s
[1]; [10]
  Duration (0-2 Minutes) Average: 35.3 s
  Duration (0-5 Minutes) Average: 181.6 s
[2]; [11]
  Average PWL Post-Treatment: 246.8
  PWL Change: 149.7 s
[2]; [12]
  Average PWL Post-Treatment: 233.5
  PWL Change: 136.4 s
[2]; [13]
  Average PWL Post-Treatment: 256.1
  PWL Change: 159.1 s
[2]; [14]
  Average PWL Post-CFA: 97.1
[2]; [15]
  Average PWL Post-CFA: 97.0
[2]; group 10 mg/kg PO, solution in 4% DMSO, 5% Tween-80, 20% Cremophor EL, and 71% water
  Average PWL Post-CFA: 97.0

## Cc1cc(Cn2c(=O)c3c(ncn3[C@@H](C)C(=O)Nc3cncc(-c4cnc(C(F)(F)F)nc4)n3)n(C)c2=O)no1 [Compound 21, (S)-2-(3-methyl-1-((5-methylisoxazol-3-yl)methyl)-2,6-dioxo-2,3-dihydro-1H-purin-7(6H)-yl)-N-(6-(2-(trifluoromethyl)pyrimidin-5-yl)pyrazin-2-yl)propanamide]
[3]
  pIC50: 7.72
[1]; [8]
  Duration (0-2 Minutes) Average: 99.6 s
  Duration (0-5 Minutes) Average: 206.9 s
[1]; [16]
  Duration (0-2 Minutes) Average: 80.5 s
  Duration (0-5 Minutes) Average: 202.5 s
[1]; [9]
  Duration (0-2 Minutes) Average: 97.5 s
  Duration (0-5 Minutes) Average: 186.9 s
[1]; [17]
  Duration (0-2 Minutes) Average: 86.5 s
  Duration (0-5 Minutes) Average: 190.1 s
[1]; [10]
  Duration (0-2 Minutes) Average: 71.8 s
  Duration (0-5 Minutes) Average: 116.5 s
[1]; [18]
  Duration (0-2 Minutes) Average: 78.0 s and 92.3 s
  Duration (0-5 Minutes) Average: 202.8 s and 163.1 s
[1]; [19]
  Duration (0-2 Minutes) Average: 100.5 s
  Duration (0-5 Minutes) Average: 165.4 s
[2]; [20]
  Average PWL Post-Treatment: 159.2
  PWL Change: 49.6 s
[2]; [21]
  Average PWL Post-Treatment: 106.4
  PWL Change: 11.9 s
[2]; [11]
  Average PWL Post-Treatment: 208.5
  PWL Change: 94.2 s
[2]; [22]
  Average PWL Post-Treatment: 155.2
  PWL Change: 59.8 s
[2]; [12]
  Average PWL Post-Treatment: 258.9
  PWL Change: 148.8 s
[2]; [23]
  Average PWL Post-Treatment: 236.7
  PWL Change: 142.4 s
[2]; [24]
  Average PWL Post-CFA: 109.6
[2]; group 0.3 mg/kg PO, suspension in 0.5% methylcellulose
  Average PWL Post-CFA: 94.5
[2]; [14]
  Average PWL Post-CFA: 114.3
[2]; group 1 mg/kg PO, suspension in 0.5% methylcellulose
  Average PWL Post-CFA: 95.4
[2]; [15]
  Average PWL Post-CFA: 110.1
[2]; group 3 mg/kg PO, suspension in 0.5% methylcellulose
  Average PWL Post-CFA: 94.3

## CC(=O)Cn1c(=O)c2c(ncn2[C@@H](C)C(=O)Nc2cccc(-c3cnc(N4CC5C(C4)C5(F)F)nc3)n2)n(C)c1=O (stereo partly drawn) [Compound 25, (2S)—N-(6-(2-(6,6-difluoro-3-azabicyclo[3.1.0]hexan-3-yl)pyrimidin-5-yl)pyridin-2-yl)-2-(3-methyl-2,6-dioxo-1-(2-oxopropyl)-2,3-dihydro-1H-purin-7(6H)-yl)propanamide]
[3]
  pIC50: 8.40
[1]; [8]
  Duration (0-2 Minutes) Average: 87.8 s
  Duration (0-5 Minutes) Average: 190.1 s
[1]; [9]
  Duration (0-2 Minutes) Average: 22.8 s
  Duration (0-5 Minutes) Average: 98.3 s
[1]; [10]
  Duration (0-2 Minutes) Average: 29.1 s
  Duration (0-5 Minutes) Average: 146.0 s
[2]; [20]
  Average PWL Post-Treatment: 170.2
  PWL Change: 65.2 s
[2]; [11]
  Average PWL Post-Treatment: 224.8
  PWL Change: 119.7 s
[2]; [12]
  Average PWL Post-Treatment: 259.9
  PWL Change: 154.9 s
[2]; [24]
  Average PWL Post-CFA: 105.0
[2]; [14]
  Average PWL Post-CFA: 105.1
[2]; [15]
  Average PWL Post-CFA: 105.1

## COCC(=O)Cn1c(=O)c2c(ncn2[C@@H](C)C(=O)Nc2csc(-c3cnc(N4CC5CC5C4)nc3)n2)n(C)c1=O (stereo partly drawn) [Compound 105, (2S)—N-(2-(2-(3-azabicyclo[3.1.0]hexan-3-yl)pyrimidin-5-yl)thiazol-4-yl)-2-(1-(3-methoxy-2-oxopropyl)-3-methyl-2,6-dioxo-2,3-dihydro-1H-purin-7(6H)-yl)propanamide]
[1]; [8]
  Duration (0-2 Minutes) Average: 97.9 s
  Duration (0-5 Minutes) Average: 162.6 s
[1]; [9]
  Duration (0-2 Minutes) Average: 86.0 s
  Duration (0-5 Minutes) Average: 154.0 s
[1]; [10]
  Duration (0-2 Minutes) Average: 70.1 s
  Duration (0-5 Minutes) Average: 137.3 s
[2]; [20]
  Average PWL Post-Treatment: 137.3
  PWL Change: 34.9 s
[2]; [11]
  Average PWL Post-Treatment: 215.2
  PWL Change: 112.8 s
[2]; [12]
  Average PWL Post-Treatment: 226.3
  PWL Change: 123.6 s
[2]; [24]
  Average PWL Post-CFA: 102.4
[2]; [14]
  Average PWL Post-CFA: 102.3
[2]; [15]
  Average PWL Post-CFA: 102.7
